How the values were obtained:
[1] = test system: MDCK-MDR1 cell monolayers; assay: Assessment of efflux in MDCK cells transfected with the human MDR1 gene (MDCK assay); assay type: in vitro ADME, canine; conditions: for Papp (a-b) mean: MDCK-MDR1, apical-to-basal, pH 7.4, 37° C.; for efflux ratio: MDCK-MDR1, Papp (b-a) divided by Papp (a-b)
Method: Assessment of Efflux in Madin-Darby Canine Kidney Cells Transfected with the Human MDR1 Gene (MDCK Assay)
Apparent permeability coefficients (PE) of the compounds across the MDCK-MDR1 cell monolayers are measured (pH 7.4, 37° C.) in apical-to-basal (AB) and basal-to-apical (BA) transport direction. AB permeability (PEAB) represents drug absorption from the blood into the brain and BA permeability (PEBA) drug efflux from the brain back into the blood via both passive permeability as well as active transport mechanisms mediated by efflux and uptake transporters that are expressed on the MDCK-MDR1 cells, predominantly by the overexpressed human MDR1 P-gp. The compounds are assigned to permeability/absorption classes by comparison of the AB permeabilities with the AB permeabilities of reference compounds with known in vitro permeability and oral absorption in the human. Identical or similar permeabilities in both transport directions indicate passive permeation, vectorial permeability points to additional active transport mechanisms. Higher PEBA than PEAB indicates the involvement of active efflux mediated by MDR1 P-gp. Active transport is concentration-dependently saturable.
MDCK-MDR1 cells (1-2×10e5 cells/1 cm2 area) are seeded on filter inserts (Costar transwell polycarbonate or PET filters, 0.4 μm pore size) and cultured (DMEM) for 7 days. Subsequently, the MDR1 expression is boosted by culturing the cells with 5 mM sodium butyrate in full medium for 2 days. Compounds are dissolved in appropriate solvent (like DMSO, 1-20 mM stock solutions). […] The transport solution (TL) is applied to the apical or basolateral donor side for measuring A-B or B-A permeability (3 filter replicates), respectively. The receiver side contains the same buffer as the donor side. Samples are collected at the start and end of experiment from the donor and at various time intervals for up to 2 hours also from the receiver side for concentration measurement by HPLC-MS/MS or scintillation counting. Sampled receiver volumes are replaced with fresh receiver solution. Efflux ratio is calculated dividing the Papp (b-a) values by the Papp (a-b) values.

[2] = Metabolic stability in pooled human liver microsomes; assay type: in vitro ADME; conditions: human liver microsomes, 1 mg/mL protein, 1 μM compound, 37° C.
Method: The metabolic degradation of the test compound was assayed at 37° C. with pooled liver microsomes from various species. The final incubation volume of 100 μl per time point contains TRIS buffer pH 7.6 at room temperature (0.1 M), magnesium chloride (5 mM), microsomal protein (1 mg/mL for human and dog, 0.5 mg/mL for other species) and the test compound at a final concentration of 1 μM. Following a short preincubation period at 37° C., the reactions were initiated by addition of betanicotinamide adenine dinucleotide phosphate, reduced form (NADPH, 1 mM), and terminated by transferring an aliquot into solvent after different time points. […] The half-life was determined by the slope of the semi-logarithmic plot of the concentration-time profile.

[3] = target: PDE10 (Homo sapiens (Human), UniProt Q9Y233); assay: Phosphodiesterase (PDE) 10 assay with fluorescent substrate (IMAP, fluorescence polarization); assay type: biochemical; conditions: labeled cAMP 30 nM
Chain of PDE10 (Q9Y233 whole entry): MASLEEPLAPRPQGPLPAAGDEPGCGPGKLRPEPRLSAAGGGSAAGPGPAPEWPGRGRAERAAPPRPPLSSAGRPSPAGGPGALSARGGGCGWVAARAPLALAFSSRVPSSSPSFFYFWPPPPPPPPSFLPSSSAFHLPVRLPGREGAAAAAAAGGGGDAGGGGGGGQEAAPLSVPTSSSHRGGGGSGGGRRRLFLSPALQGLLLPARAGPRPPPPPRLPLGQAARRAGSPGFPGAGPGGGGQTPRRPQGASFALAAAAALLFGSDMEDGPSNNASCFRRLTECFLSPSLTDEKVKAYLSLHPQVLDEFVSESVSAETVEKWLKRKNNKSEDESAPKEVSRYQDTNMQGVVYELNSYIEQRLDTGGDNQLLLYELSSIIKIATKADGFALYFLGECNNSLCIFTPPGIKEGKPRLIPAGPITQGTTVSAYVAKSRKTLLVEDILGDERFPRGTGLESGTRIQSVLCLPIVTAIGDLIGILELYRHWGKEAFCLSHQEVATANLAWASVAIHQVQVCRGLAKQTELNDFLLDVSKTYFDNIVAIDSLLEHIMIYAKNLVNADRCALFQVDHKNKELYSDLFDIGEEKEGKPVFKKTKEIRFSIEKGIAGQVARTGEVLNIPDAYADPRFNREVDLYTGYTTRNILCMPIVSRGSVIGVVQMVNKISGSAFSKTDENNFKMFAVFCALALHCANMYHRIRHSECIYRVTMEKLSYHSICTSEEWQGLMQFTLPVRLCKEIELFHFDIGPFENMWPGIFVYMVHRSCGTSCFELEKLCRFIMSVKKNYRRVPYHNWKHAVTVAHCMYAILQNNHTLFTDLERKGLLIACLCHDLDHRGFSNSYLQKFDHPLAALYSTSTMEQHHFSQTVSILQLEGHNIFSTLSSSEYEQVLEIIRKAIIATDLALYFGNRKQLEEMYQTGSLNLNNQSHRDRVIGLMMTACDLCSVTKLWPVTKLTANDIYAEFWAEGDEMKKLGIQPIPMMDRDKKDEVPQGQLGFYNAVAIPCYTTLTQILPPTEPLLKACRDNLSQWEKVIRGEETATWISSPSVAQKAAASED
Method: (§1) The PDE reaction cleaves cAMP to AMP. The IMAP system (Molecular Device) using fluorescence polarization (FP) as detection principle was used to measure enzyme activity. A fluorescent labeled cAMP was used as substrate for the reaction, generating a labeled AMP. The fluorescent AMP binds specifically to the large M(III)-based nano-particles which reduces the rotational speed of the substrate and thus increases its polarization.
(§2) The inhibition of PDE 2A or 10 enzyme activity was assessed using IMAP-Phosphodiesterase-cAMP fluorescence labeled substrate (Molecular Devices, Order No. R7506), IMAP TR-FRET screening express (Molecular Devices, Order No. R8160, the TR-FRET component will not be used) and PDE 2A or PDE10 protein expressed upon baculovirus infection in SF9 cells. The cells were incubated after infection for ˜3 days and protein production was confirmed by Western Blot. The cells were collected by centrifugation and the pellet frozen in liquid nitrogen before it was resuspended in PBS containing 1% Triton X-100 and protease inhibitors. After 45 min incubation on ice, the cell debris was removed by centrifugation (13.000 rpm, 30 min).
(§3) All reactions were performed in 384 well plates, Perkin Elmer black optiplates and IMAP reaction buffer with 0.1% Tween20 (kit component)
(§4) Compounds were serial diluted in DMSO. With an intermediate dilution step with reaction buffer DMSO concentration was reduced to achieve 1% DMSO in the assay reaction. Setup of the assay started with 10 μl enzyme (˜10 ng/well, depending on prep. batch), 5 μl compound, reaction was started by addition of 5 μl labeled cAMP (30 nM, final concentration), immediately mixed for 15 seconds on a Eppendorf mixmate (2000 rpm) followed by an incubation at room temperature for 90 minutes in the dark. Reaction is stopped by adding of 60 μl binding buffer for FP/cAMP (kit component).
(§5) Each assay plate contained wells with vehicle controls (1% DMSO) for the measurement of non-inhibited reaction (=100% control) and wells without enzyme as 0% controls.

[4] = Plasma protein binding with equilibrium dialysis, human plasma; assay type: in vitro ADME; conditions: human plasma, 1.0 μM, equilibrium dialysis 2 hours 37° C.
Text: (§6) Plasma Protein Binding (Determination of Human and Rat Plasma Protein Binding with Equilibrium Dialysis)
(§7) This equilibrium dialysis (ED) technique is used to determine the approximate in vitro fractional binding of test compounds to human and rat plasma proteins.
(§8) Dianorm Teflon dialysis cells (micro 0.2) are used. Each cell consists of a donor and an acceptor chamber, separated by an ultrathin semipermeable membrane with a 5 kDa molecular weight cutoff.
(§9) Stock solutions for each test compound are prepared in DMSO at 1 mM and diluted to a final concentration of 1.0 μM. The subsequent dialysis solutions are prepared in pooled human and rat plasma (with NaEDTA)
(§10) Aliquots of 200 μL dialysis buffer (100 mM potassium phosphate, pH 7.4) are dispensed into the buffer chamber. Aliquots of 200 μL test compound dialysis solution are dispensed into the plasma chambers. Incubation is carried out for 2 hours under rotation at 37° C.
(§11) At the end of the dialysis period, the dialysate is transferred into reaction tubes. The tubes for the buffer fraction contain 0.2 ml Acetonitril/water (80/20). Aliquots of 25 μl of the plasma dialysate are transferred into deep well plates and mixed with 25 μl Acetonitril/water (80/20), 25 μl buffer, 25 μl calibration solution and 25 μl Internal Standard solution. Protein precipitation is done by adding 200 μl Acetonitrile. Aliquots of 50 μl of the buffer dialysate are transferred into deep well plates and mixed with 25 μl blank plasma, 25 μl Internal Standard solution and 200 μl Acetonitril. Samples are measured on HPLC-MS/MS-Systems and evaluated with Analyst-Software.
(§12) Percent bound is calculated with the formula: % bound=(plasma concentration−buffer concentration/plasma concentration)×100 and % free is calculated as difference.

[5] = Plasma protein binding with equilibrium dialysis, rat plasma; assay type: in vitro ADME; conditions: rat plasma, 1.0 μM, equilibrium dialysis 2 hours 37° C.
Text: as §6, §7, §8, §9, §10, §11, §12

[6] = target: PDE 2A (Homo sapiens (Human), UniProt O00408); assay: Phosphodiesterase (PDE) 2A assay with fluorescent substrate (IMAP, fluorescence polarization); assay type: biochemical; conditions: labeled cAMP 30 nM, read-out: PDE2 IC50
Chain of PDE 2A (O00408 whole entry, species assumed): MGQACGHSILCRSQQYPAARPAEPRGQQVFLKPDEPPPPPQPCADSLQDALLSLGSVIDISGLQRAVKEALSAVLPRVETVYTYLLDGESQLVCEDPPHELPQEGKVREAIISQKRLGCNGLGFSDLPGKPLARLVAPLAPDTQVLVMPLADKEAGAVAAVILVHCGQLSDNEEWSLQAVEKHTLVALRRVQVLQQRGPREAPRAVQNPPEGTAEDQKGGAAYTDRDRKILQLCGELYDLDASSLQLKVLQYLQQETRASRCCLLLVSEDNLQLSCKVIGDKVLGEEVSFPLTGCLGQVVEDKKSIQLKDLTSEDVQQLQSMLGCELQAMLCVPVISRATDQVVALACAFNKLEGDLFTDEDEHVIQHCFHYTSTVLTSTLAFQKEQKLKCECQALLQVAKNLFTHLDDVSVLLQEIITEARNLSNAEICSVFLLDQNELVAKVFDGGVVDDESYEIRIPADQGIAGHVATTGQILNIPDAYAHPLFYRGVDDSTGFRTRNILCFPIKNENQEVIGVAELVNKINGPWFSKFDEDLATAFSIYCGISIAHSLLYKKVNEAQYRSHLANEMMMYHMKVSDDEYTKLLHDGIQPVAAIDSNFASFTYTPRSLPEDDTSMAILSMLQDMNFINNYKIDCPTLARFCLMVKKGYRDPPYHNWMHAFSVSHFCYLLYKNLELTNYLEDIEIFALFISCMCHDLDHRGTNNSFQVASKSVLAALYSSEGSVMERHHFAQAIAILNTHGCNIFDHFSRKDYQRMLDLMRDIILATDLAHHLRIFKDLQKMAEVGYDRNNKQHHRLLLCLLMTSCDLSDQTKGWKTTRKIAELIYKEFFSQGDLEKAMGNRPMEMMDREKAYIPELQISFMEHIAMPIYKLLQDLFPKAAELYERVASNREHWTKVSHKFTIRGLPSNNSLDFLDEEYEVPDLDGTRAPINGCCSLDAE
Method: as §1, §2, §3, §4, §5

Cc1cnc2c(C(=O)NC3(c4ccc(C(F)(F)F)cc4F)CCOCC3(C)O)cnn2c1 (single isomer, unassigned) [Example 84a]
Papp (a-b) mean [1]: 31 10-6 cm/s

Cc1cnc2c(C(=O)NC3(c4ccc(C(F)(F)F)cc4F)CCOCC3(C)O)cnn2c1 (single isomer, unassigned) [Example 84b]
Papp (a-b) mean [1]: 23 10-6 cm/s

Cc1cnc2c(C(=O)NC3(c4ccc(C(F)(F)F)cc4F)CCOCC3O)cnn2c1 (single isomer, unassigned) [Example 81b]
Half-life t½ human [2]: >2.17 h
IC50 [3]: > 10000 nM
PPB HUM % BINDING [4]: 65.3%
PPB RAT % BINDING [5]: 66.2%
Papp (a-b) mean [1]: 64 10-6 cm/s

O=C(NC1(c2ccc(C(F)(F)F)cc2F)COCC1O)c1cnn2cc(C3CC3)cnc12 (single isomer, unassigned) [Example 71]
IC50 [6]: 13 nM
Half-life t½ human [2]: >2.17 h
IC50 [3]: > 10000 nM
PPB HUM % BINDING [4]: 81.1%
efflux ratio [1]: 1.9
Papp (a-b) mean [1]: 23 10-6 cm/s

O=C(NC1(c2ccc(C(F)(F)F)cc2F)COCC1O)c1cnn2cc(C3CC3)cnc12 (single isomer, unassigned) [Example 70]
IC50 [6]: 1250 nM
Half-life t½ human [2]: 1.05 h
IC50 [3]: > 10000 nM
PPB HUM % BINDING [4]: 79.4%
efflux ratio [1]: 2.1
Papp (a-b) mean [1]: 20 10-6 cm/s

From patent US10023575B2, “Cyclic ether derivatives of pyrazolo[1,5-a]pyrimidine-3-carboxyamide” (Boehringer Ingelheim International GmbH, priority 2015, dated 2018)
